This note sets out measurements from article PMC7714071, “Interaction of amyloid beta with humanin and acetylcholinesterase is modulated by ATP” (FEBS Open Bio, 2020).

In this test the test system is Aβ from H1299 cell-conditioned media. In words: ELISA, HN (endogenous and exogenously added) and AChE bound to Aβ from H1299 media on 82E1 antibody. In kind it is binding, human. Conditions: H1299 media, Fig. 6B. As to the method:
Human NSCLC cell lines, A549 (ATCC CCL‐185) and H1299 (ATCC CRL‐5803), were purchased from the American Type Culture Collection (ATCC, Manassas, VA, USA). Cells were seeded as we reported earlier in 5 mL HyClone Dulbecco's modified Eagle's medium/nutrient mixture F‐12 (DMEM/F12) (GE Healthcare Life Sciences, Pittsburgh, PA, USA), supplemented with 10% Fetalgro bovine growth serum (FBS; RMBIO, Missoula, MT, USA), 50 U·mL^−1 penicillin, and […] streptomycin (Invitrogen, Life Technologies, Carlsbad, CA, USA) in 25‐cm^2 tissue culture flasks, and allowed to grow overnight in an incubator at 37 °C, 95% humidity, and 5% CO2. The cells were counted after trypan blue staining, with a hemocytometer.
ELISAs were carried out as we previously reported. Nunc MaxiSorp 96‐well flat bottom plate (Thermo Fisher) wells were coated with samples as indicated. The plates were incubated overnight at 4 °C on a shaker to allow binding of the samples to the plate wells. After the incubation, the wells were washed 4× with TBST, filled with 400 µL blocking buffer (110 mM KCl, 5 mM NaHCO3, 5 mM MgCl2, 1 mM EGTA, 0.1 mM CaCl2, 20 mM HEPES, 1% BSA, pH 7.4), and incubated with shaking overnight at 4 °C. The wells were then washed 4× with TBST, and 100 µL of sample at the desired concentration was added to each well and incubated with shaking overnight at 4 °C. TBST was then used to wash the wells 4× before proceeding in one of two ways: (a) biotinylated samples were analyzed by adding 100 µL streptavidin–HRP conjugate in TBST (1 : 2500 dilution) to the samples followed by incubation for 3 h at RT on a shaker, or (b) samples without biotin were analyzed by adding 100 µL TBST containing the primary antibody as per the manufacturer's recommendation, incubating for 3 h at RT on a shaker, followed by washing the wells 4× with TBST. […] The reaction was stopped with 100 µL 2 M H2SO4 after incubating at RT for 0.5–15 min, resulting in a yellow color change, measured by absorbance at 450 nm. […] Before analysis, the OD from the data was corrected for nonspecific binding by subtracting the mean background absorbance for the negative controls. […] Statistical analysis was determined by the […] […] Data were expressed as the mean ± SD. […]
Anti‐Aβ‐specific antibodies (82E1) were added (1 : 1000 dilution) to ELISA plate wells (Fig. 6). The wells were blocked, and then, 300 µL of the conditioned media (0.5 µg·µL^−1) of A549 or H1299 cells, 72 h postserum starvation, was added in the absence or presence of increasing HN concentrations, and the HN and AChE bound were detected using the corresponding specific primary antibodies. Fold change relative to controls that included all components but without the primary antibodies was calculated and fit with a nonlinear regression curve using the […] […]

As to `Nc1ncnc2c1ncn2[C@@H]1O[C@H](COP(=O)(O)OP(=O)(O)OP(=O)(O)O)[C@@H](O)[C@H]1O` [ATP, Adenosine triphosphate], the “effect of ATP on binding of exogenously added HN to Aβ” value (0.1 mM, 1 mM ATP (more pronounced at 1 mM)) is given as “decreased binding of exogenously added HN”. Moreover, the “effect of ATP on binding of endogenous HN to Aβ” value (increasing ATP (0.1 mM, 1 mM; more pronounced at 1 mM), 82E1) is listed as “increased binding of endogenous HN”.
Turning to Humanin [HN], the “HN concentration at which signal begins to level off” value (exogenous HN) is on record as “around 50 nM”. Besides, under “increasing exogenous HN, 82E1”, the “binding of exogenous HN to Aβ” value was “increased binding to Aβ”.
